Assay results: patent US12208080B2, “Compositions and methods for modulation of extracellular vesicle release and treatment of neurological disorders” (GEORGE MASON RESEARCH FOUNDATION, INC., priority 2018, dated 2025)

Test system: HIV-1 infected monocytes (U1)
Experiment: RT-qPCR of intracellular HIV-1 TAR and env RNA in U1 cells (viral transcription)
Type: cell-based
Conditions: for intracellular TAR RNA (HIV-1 transcription) / intracellular env RNA (HIV-1 transcription): 1, 5, 20, 50 μM, 5 days, FIG. 4A; for intracellular TAR RNA / intracellular env RNA: CBD 1, 5, 10 μM, THC 1, 5, 10 μg/mL every day for 5 days, FIG. 15A
Protocol: HIV-1 infected monocytes (U1) were treated with CBD (1, 5, 20, and 50 μM) or THC (1, 5, 20, and 50 μM) for 5 days. Total RNA was isolated from cell pellets and analyzed by RT-qpCR for TAR RNA and env RNA. Student's t-test was used to determine significance (***=p<0.001, and**=p<0.01).
FIGS. 15A-15C are graphs and gels showing cannabidiols lower intracellular viral transcription and downstream viral products. U1 cells (1×10^6) were treated with a titration of CBD (1, 5, 10 μM) and THC (1, 5, 10 μg/mL) every day for 5 days. A) Intracellular RNA was isolated and analyzed through RT-qPCR for HIV-1 viral transcripts TAR and env. Each bar represents an average of three independent replicates. B) U1 cells (2×10^6) were treated with a titration of CBD (1, 5, 10 μM) every day for 5 days. Cells pellets were lysed, run through SDS-PAGE, and western blotted for (p-)/NF-κB, autophagosomal markers (p63, LC3), EV biogenesis marker VPS4, viral markers (gp120, Nef, p24), and Actin. C) U1 cells (5×10^6) were treated±CBD (10 μM) and Flavopiridol hydrochloride (50 nM; indicated as Flavo) and incubated for the following time points: 0 minutes, 2 hours and 6 hours. Cells were cross-linked with 1% formaldehyde solution and ChIP-ed for IgG and Pol II. ChIP DNA samples were analyzed via qPCR for TAR and env. Student's t-test was used for statistical analysis, where *p-value≤0.05; **p-value≤0.01, ***p-value≤0.001.
To determine if the observed reduction in EV-associated viral RNA was a result of a decrease in HIV-1 transcription rather than an alteration in the packaging of these viral RNAs into EVs, intracellular RNA was analyzed to assess for changes HIV-1 transcription. […] The differences in inhibition of short transcripts imply targeting at different stages of transcription with CBD inhibiting transcription initiation and THC inhibiting transcription elongation. These differences in transcriptional regulation can be further analyzed using a three-state L TR mathematical model to depict changes in viral RNA and protein production over extended periods of time (FIG. 4B).
For the isolation of total RNA, cells were harvested, washed once in 1×PBS without calcium or magnesium and resuspended in 50 μL of 1×PBS. For the isolation of total RNA from EVs, Nanotrap particles were incubated and harvested as described above, then resuspended in 50 μL of 1×PBS without calcium or magnesium. Total RNA was isolated from cell pellets and NT80/82 pellets bound with EVs using Trizol Reagent (Invitrogen) as described by the manufacturer's protocol. cDNA was generated using GoScript Reverse Transcription Systems (Promega) using Envelope Reverse: (5′-TGGGATAAGGGTCTGAAACG-3′ (SEQ ID NO:1); Tm=58° C.), and TAR Reverse: (5′-CAACAGACGGGCACACACTAC-3′ (SEQ ID NO:2), Tm=58° C.) primers. Serial dilutions of DNA from a CEM T-cell line containing a single copy of HIV-1 LAV provirus per cell (8E5 cells) were used as the quantitative standards. cDNA samples (2 μL/well) were plated into a Master Mix (18 μL/well) containing IQ Supermix (Bio-Rad), TAR Forward Primer (5′-GGTCTCTCTGGTTAGACCAGATCTG-3′ (SEQ ID NO:3)), TAR Reverse Primer (5′-CAACAGACGGGCACACACTAC-3′ (SEQ ID NO:4)), and TAR Probe (5′56-FAM-AG CCTCAATAAAGCTTGCCTTGAGTGCTTC-36-TAMSp-3′ (SEQ ID NO:5)). RT-qPCR conditions were as follows: one cycle for 2 min at 95° C. followed by 41 cycles of 95° C. for 15 s and 58° C. for 40 s. Reactions were performed in triplicate using the BioRad CFX96 Real Time System. Quantitation was determined using cycle threshold (Ct) values relative to the 8E5 standard curve using the BioRad CFX Manager Software. Analysis of generated raw data was analyzed using Microsoft Excel 2016.
Therefore, U1 monocytes were treated with a titration of CBD (1, 5, 10 μM) and THC (1, 5, 10 μg/mL) every day for 5 days. Total RNA was isolated from the harvested cell pellets followed by RT-qPCR analysis of 3 independent replicates for TAR and env RNAs.

[1] = 10 μM every day for 5 days, FIG. 15A lane 4

SMILES | decrease in intracellular TAR RNA compared to untreated control [1] | decrease in intracellular env RNA compared to untreated control [1] | intracellular TAR RNA (HIV-1 transcription) | intracellular env RNA (HIV-1 transcription) | intracellular TAR RNA | intracellular env RNA
C=C(C)[C@@H]1CCC(C)=C[C@H]1c1c(O)cc(CCCCC)cc1O [CBD, 2-[1R-3-methyl-6R-(1-methylethenyl)-2-cyclohexen-1-yl]-5-pentyl-1,3-benzenediol] | 95% | 96% | decrease of both transcripts | decrease of both transcripts | dose-dependent decrease | dose-dependent decrease
CCCCCc1cc(O)c2c(c1)OC(C)(C)[C@@H]1CCC(C)=C[C@@H]21 [THC, Δ9-tetrahydrocannabinol] |  |  | only resulting in a decrease in the env RNA | decrease in the env RNA | not TAR RNA | only treatment with the highest concentration of THC resulted in a significant decrease
